Data published in publication PMC5104457, “ATP-Competitive MLKL Binders Have No Functional Impact on Necroptosis” (PLoS ONE, 2016).
Read-outs that look alike come from different tables or passages of the source.

Columns and labels:
[1] = system: RIPK3 phosphorylation of MLKL in 293T cells; assay: MLKL phosphorylation assay (MSD), RIPK3-dependent phospho Ser358; format: cell-based, human; conditions: 293T cells with GFP-MLKL and RIPK3-mCherry, 30 min compound, normalized to DMSO
Experimental: The cDNA clones of human MLKL (RC213152) and human RIPK3 (RC209549) were purchased from Origene. To generate GFP-MLKL and RIPK3-mCherry, coding sequences of the corresponding cDNA sequences were PCR amplified and cloned into Biogen’s mammalian expression vector.
293T cells grown in 10 cm plates were transfected with GFP-MLKL alone or both GFP-MLKL and RIPK3-mCherry plasmids. After 24 hours, cells were harvested and replated into poly D lysine coated 96W plate with 20,000 cells/ml. Four hours later, cells were treated with MLKL compounds for 30 min and incubated at 37°C. Thirty minutes later, the media was removed and cells were lysed in 150μl of Cell lysis buffer (Cell Signaling, MA) containing both protease and phosphatase inhibitors. The lysates were transferred to 96 well MSD plates (Meso Scale Discovery, MD) that were precoated with anti-mouse MLKL antibody H00197259-M02, 3B2, Novus Biologicals, CO), and incubated overnight at 4°C. After washing the plates three times with 1x MSD wash buffer (50mM TRIS-HCl, 150mM NaCl, 0.02% Tween 20, pH7.5), 100 μl of 0.5μg/ml of rabbit-anti-MLKL phospho Ser358 (Abcam AB187091) was added to each well. The plates were incubated for 2 hours at room temperature. After three washes with MSD wash buffer, 100 μ l of 0.5ug/ml of SULFO-tag labeled anti-rabbit IgG was added to each well and incubated for 1 hour at room temperature. After three washes, 1x Read bufferT (Meso Scale Discovery, MD) was added and the electrochemiluminescence (ECL) was measured with a MSD Sector Imager 600.

403 non-mutant kinases = assay: DiscoverX kinase selectivity panel; format: binding; conditions: 1 μM compound
Source text: We then characterized several compounds that were expected to bind to MLKL across a broad panel of 403 non-mutant kinases at DiscoverX.

FADD (-/-) Jurkat cells = assay: Necroptosis assay: rescue from TNF-α induced cell death; format: cell-based; conditions: Homo sapiens; for IC50: read-out: Necroptosis cell IC50
Experimental: Necroptosis assays were performed at Charles River Laboratories (United Kingdom) and at Biogen. […] On the day of the experiment, cells were counted using Nexcelom Bioscience Cell Meter Vision and pelleted by centrifugation. Cell pellets were resuspended in fresh medium at 500,000 cells per mL and transferred to assay-ready compound plates prepared in 384-well white TC plates (Greiner #781080) at 20μl cells per well. Cells and compound were incubated at room temperature for 30 minutes followed by +/- stimulation with 15ng/ml TNF-α (Cell signalling Technologies #8902LF) overnight at 37°C. In the morning, plates were equilibrated to room temperature for 30 minutes and 25μl of CellTiter-Glow (CellTiter-Glo 2.0 Assay, Promega # G9243) diluted 1:4 in PBS was added to each well and allowed to incubate for 10 minutes at room temperature. Luminescence was read on an Envision plate reader (Perkin Elmer).
TNF-α added to these cells induces necroptosis or cell death. The term “Rescue” refers to the ability of a compound to prevent loss of cell viability in the presence of TNF. Definitions of the presence or absence of compound or TNF stimulation in the wells that were used to calculate degree of rescue or viability is defined in Table 1.
100% percent rescue is defined as the value of the “no TNF” wells minus the value of wells treated with “TNF”.
Percent Rescue is then the ratio of the intensity value of the experimental “well” minus the value of “TNF” treated wells divided by the overall difference between the value of “no TNF” treated wells and the value of “TNF” treated wells.
%rescue=((well - TNF)/(no TNF - TNF))x100

pseudokinase MLKL-1 = molecular target: T1, pseudokinase MLKL-1 (Homo sapiens, UniProt Q8NB16); assay: Differential scanning fluorimetry (thermal shift), MLKL pseudokinase domain; format: binding; conditions: 10 μM compound, 1 μM protein, average of triplicates; read-out: MLKL Pseudo-kinase thermal shift at 10 μM
T1 construct: sub-cloning residues 191 to 471 of the pseudokinase domain of human MLKL cDNA; His6 (thrombin cleavable) (N); made in house; host or cells: Escherichia coli BL21 (DE3)
T1 sequence (Q8NB16 191-471): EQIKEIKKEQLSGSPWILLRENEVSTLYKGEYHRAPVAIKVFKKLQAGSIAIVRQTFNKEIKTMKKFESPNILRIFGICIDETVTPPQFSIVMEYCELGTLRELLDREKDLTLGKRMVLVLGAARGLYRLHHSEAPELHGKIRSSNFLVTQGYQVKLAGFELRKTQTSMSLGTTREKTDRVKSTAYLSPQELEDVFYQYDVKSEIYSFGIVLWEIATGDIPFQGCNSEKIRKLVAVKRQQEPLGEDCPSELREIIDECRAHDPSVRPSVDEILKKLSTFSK
Source text: MLKL-1 was constructed by sub-cloning residues 191 to 471 of the pseudokinase domain of human MLKL cDNA into a pET15b vector with a thrombin cleavable N-terminal six histidine fusion tag (His-MLKL-1). MLKL-2 had the same protein boundaries and fusion tag system as MLKL-1 but the dual mutations E366A and K367A were introduced using site directed mutagenesis and was expressed in the same vector (His-MLKL-2).
(§1) To measure the thermal stabilization of the proteins upon compound binding we employed differential scanning fluorimetry (DSF). The kinase domain of RIPK1 and the N-terminal domain HSP90α were expressed and purified as previously described. The pseudokinase MLKL-1, RIPK1 and Hsp90 were melted at 1μM final concentrations in 25mM HEPES pH 8.0, 250mM NaCl and 2.5mM DTT. Compounds were added to a final concentration of 10 μ M with a final DMSO concentration of 5%. The complexes were incubated on ice for 30 minutes. Protein Thermal Shift dye (Life Technologies) was added to 1X. The fluorescence intensities were measured using a Quantstudio real-time PCR system (Life Technologies) with excitation at 470 nm and emission at 586 nm. The samples, measured in triplicate, were heated from 25 to 85°C with a heating rate of […].

kinase domain of RIPK1 = molecular target: T2, kinase domain of RIPK1 (Homo sapiens, UniProt Q13546); assay: Differential scanning fluorimetry (thermal shift), RIPK1 kinase domain; format: binding; conditions: 10 μM compound, 1 μM protein, average of triplicates
T2 construct: The kinase domain of RIPK1; made in house
T2 sequence (Q13546 17-289 limits assumed): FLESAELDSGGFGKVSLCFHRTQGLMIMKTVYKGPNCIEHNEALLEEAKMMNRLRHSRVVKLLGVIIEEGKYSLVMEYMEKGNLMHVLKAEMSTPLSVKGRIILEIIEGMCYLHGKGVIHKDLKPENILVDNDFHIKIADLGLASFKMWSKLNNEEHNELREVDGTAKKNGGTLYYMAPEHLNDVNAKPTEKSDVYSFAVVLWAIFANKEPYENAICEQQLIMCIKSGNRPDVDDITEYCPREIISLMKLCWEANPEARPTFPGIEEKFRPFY
Experimental: as §1

Row | SMILES | effect on RIPK3-dependent phosphorylation of MLKL (phospho Ser358, in words) ([1]; listed as Cpd 1) | number of kinases inhibited out of 403 (403 non-mutant kinases) | IC50 (FADD (-/-) Jurkat cells; Jurkat) | EC50 (FADD (-/-) Jurkat cells; FADD deficient Jurkat cells, TNF stimulation) | ΔTm at 10 µM (pseudokinase MLKL-1) | ΔTm at 10 µM (kinase domain of RIPK1) | effect on RIPK3-dependent phosphorylation of MLKL (phospho Ser358, in words) [1] | number of kinases inhibited out of 403 (403 non-mutant kinases; listed as Cpd 4) | IC50 (FADD (-/-) Jurkat cells; FADD deficient Jurkat cells, TNF-α 15 ng/ml overnight, average of duplicates)
1 | CN(c1ccc(NC(=O)Nc2ccc(OC(F)(F)F)cc2)cc1)c1ccnc(Nc2cccc(S(N)(=O)=O)c2)n1 [cpd 1, reference compound] | does not impact its phosphorylation | 56 | 1850 nM | 1850 nM | 5 to 6 °C | 5 to 6 °C | – | – | –
2 | Nc1nccnc1C(=O)O[C@@H](C(=O)Nc1ccc(F)cc1)c1ccccc1 [cpd 4, 3-Amino-pyrazine-2-carboxylic acid (R)-(4-fluorophenylcarbamoyl)-phenyl-methyl ester] | – | 1 | – | – | 4 °C | -0.15 °C | does not impact its phosphorylation | none | > 40000 nM
